In patent US7618984B2, “Sulfonamide compound” (Asahi Kasei Pharma Corporation, priority 2005, dated 2009):

Columns and labels:
[1] = test system: monkey intraocular pressure; assay: Intraocular pressure reduction enhancing action in monkey (Test Example 7); assay type: in vivo; details: cynomolgus monkey
Experimental: Moreover, as for the test compound used for combination use, similar effect can be obtained also with the compounds of the present invention represented with the example numbers mentioned in Test Example 2. The test is performed by using cynomolgus monkeys sufficiently naturalized for the operation of fixation on a monkey chair and ophathalmotonometry.
As the test compound, the 19-1 compound is dissolved in physiological saline, and the solution is neutralized by addition of sodium hydroxide (pH 7.0 to 8.0) to prepare a 0.01 weight % aqueous solution (19-1 compound aqueous solution). As a drug for combination use, latanoprost (trade name: Xalatan, Pfizer) is used as the marketed formulation per se. The test aqueous solution or the drug for combination use is instilled to the left eye, and the right eye is not treated (control eye). […] After initial intraocular pressure values of the monkeys are measured for each group, 30 μL of physiological saline is instilled to the control group, single drug group 1, and single drug group 2, and latanoprost is instilled in the same volume to the combination use group. […] Then, the intraocular pressure is measured over time for each group.

[2] = test system: rabbit intraocular pressure; assay: Rabbit intraocular pressure reduction enhancing action, combination use (Test Example 6-1); assay type: in vivo, Japanese white rabbit; details: 50 μL, difference of left and right eyes, 2, 4 and 6 hours
Experimental: However, the effect is not limited to the 19-1 compound, and the ophthalmic solution concentration of the 19-1 compound is not limited to those used in this test example. Moreover, as for the test compound used for combination use, similar effect can be obtained also with the compounds of the present invention represented with the example numbers mentioned in Test Example 2.
As a test compound, the 19-1 compound was dissolved in physiological saline, and the solution was neutralized by addition of sodium hydroxide (pH 7.0 to 8.0) to prepare a 0.01 weight % aqueous solution (19-1 compound aqueous solution). As the drugs for combination use, isopropyl unoprostone (trade name: Rescula, Santen Pharmaceutical) was used as a prostaglandin-related drug, and brinzolamide hydrochloride (trade name: Azopt, Alcon Japan) was used as […], as the marketed formulations as they were.
A Japanese white rabbit having a body weight of about 2 kg was placed in a positioner and naturalized for one week before the experiment. An opthalmologic local anesthesant (Benoxil) was administered to both eyes, and then intraocular pressure before instillation was measured by using a tonometer (Classic 30, Solan). A test aqueous solution or the drug for combination use was administered to the left eye, and the right eye was not treated (control eye). The test groups consisted of (1) control group, (2) group instilled only with the 19-1 compound aqueous solution (single drug group 1), (3) group instilled only with the drug for combination use (single drug group 2), and (4) group instilled with the drug for combination use and the 19-1 compound aqueous solution (combination use group), and six rabbits were used for each group. As for the rabbits of these groups, 50 μL of physiological saline was first instilled to the control group, single drug group 1, and single drug group 2, and the drug for combination use was first instilled in the same volume to the combination use group. […] The intraocular pressure thereafter was measured for each group 2, 4 and 6 hours after the second administration of the test compound, and the difference of the measured values for the left and right eyes at each measurement time was considered an intraocular pressure reduction value of each group. The largest difference of the intraocular pressure values for the left and right eyes among those of the measured values of the measurement times was considered the maximum intraocular pressure reduction value (max ΔIOP) of each drug group.

[3] = test system: neutrophils; assay: Neutrophil migration inhibitory action, Boyden Chamber, FMLP (Test Example 3); assay type: cell-based; details: 0.5 h, human neutrophils, FMLP 1 μM, 37° C., 30 minutes, read-out: IC50, compound concentration providing a migration inhibition ratio of 50%
Experimental: Neutrophils were isolated from 50 to 100 ml of peripheral blood collected from healthy human donors by the method described in Test Example 1 to obtain a cell suspension (8×10^6/ml). Subsequently, solutions of a test compound at various concentrations were introduced into wells of a 96-well plate in a volume of 125 μl per well, the cell suspension of an equivalent volume was added to it and the plate was preincubated at room temperature for 5 minutes. During the preincubation, FMLP (1 μM, Sigma) solution was added to the lower chamber to set Boyden Chamber, the preincubated cell suspension was added to the upper chamber in a volume of 200 μl per well, and the cells were allowed to migrate at 37° C. under 5% carbon dioxide for 30 minutes. The filter after the migration was collected, and the non-migrated cells adhered to the surface that faced the upper chamber were carefully wiped off. Then, the migrated cells on the back surface were stained with DifQuick dye solution (International Reagents), washed with water and dried, and then absorbance was measured at 595 nm. The inhibition ratio against migration (%) of a test compound was calculated by using the following equation: Migration inhibition ratio(%)=(1−Absorbance of the group with addition of test compound/Absorbance of the group without addition of test compound)×100
Further, the migration inhibitory ratio was calculated with changing the test compound concentration, and a compound concentration providing an inhibition ratio of 50% was obtained as IC50.

IC50 [3]: 10 to 40 µM
Compound: N[C@H]1CCN(S(=O)(=O)c2cccc3cncc(Cl)c23)C1 [Example 19-1, (S)-3-Amino-1-(4-chloro-5-isoquinolinesulfonyl)pyrrolidine]
intraocular pressure reducing action in the single drug group 1 ([1]; 0.01 weight % aqueous solution, 30 μL): exceeding that of the control group
intraocular pressure reducing action in the combination use group ([1]; latanoprost (Xalatan) 30 μL, 5 minutes later 19-1 compound aqueous solution 30 μL): exceeding those of both the single drug group 1 and single drug group 2
Max ΔIOP (maximum intraocular pressure reduction value), Table 2 ([2]; 0.01 weight % 19-1 compound aqueous solution and/or brinzolamide hydrochloride (Azopt)): 4.3 mmHg
Max ΔIOP (maximum intraocular pressure reduction value), Table 3 ([2]; 0.01 weight % 19-1 compound aqueous solution and/or isopropyl unoprostone (Rescula)): 4.3 mmHg
